{
  "source": "patent US8703804B2",
  "about": "“Ryanodine receptor inhibitors and methods relating thereto” (UTI Limited Partnership, priority 2006, dated 2014)",
  "key": {"RyR2-N4104K mutant": {"molecular_target": "T1, RyR2-N4104K mutant (Mus musculus, UniProt E9Q401, N4103K)", "T1 construct": "expressed in transfected cells; host or cells: HEK293", "assay": "SOICR in HEK293 cells expressing the N4104K RyR2 mutant", "assay_type": "cell-based", "procedure": "(§1) Intracellular Ca^2+ transients were monitored using single cell Ca^2+ imaging.\n(§2) HEK293 cells may be loaded with a fluorescent Ca^2+ dye, fura-2-AM. SOICR, which manifests in the form of Ca^2+ oscillations, is continuously monitored by measuring the fluorescent changes using the single cell Ca^2+ imaging technique. Cells will be perfused with increasing concentrations (10 nM to 100 μM) of the compound. The frequency and amplitude of Ca^2+ oscillations under each condition will be determined and analyzed. Compounds that inhibit SOICR are expected to reduce the frequency of Ca^2+ oscillations, or abolish Ca^2+ oscillations.\nFurther verification of whether these identified compounds also work in cardiac cells, the effect of these compounds on SOICR in rat ventricular myocytes may also be determined. Rat ventricular myocytes may be isolated according to the standard procedure using enzymatic digestion. […] The intracellular Ca^2+ transients as a result of SOICR will be monitored by measuring the fluorescent intensity using a fluorescent microscope. Various concentrations of the selected compounds (10 nM to 100 μM) will be applied and the resulting changes in intracellular Ca^2+ transients will be determined and analyzed."}, "β-adrenergic receptor": {"system": "β-adrenergic receptor", "assay": "β-blocking: isoproterenol-induced phosphorylation of RyR2 at serine-2030 in rat cardiac myocytes (Western blot)", "assay_type": "cell-based", "conditions": "200 nM isoproterenol; for concentration that completely blocks the β-adrenergic receptor: S2030 phosphorylation", "procedure": "The β-adrenergic receptors were then stimulated by the addition of 200 nM isoproterenol (Iso) in the continued presence of drugs for 30 min at 37° C. Whole cell lysates were prepared and used for Western blotting (WB) analyses.\nIt is known that stimulation of the β-adrenergic receptor (AR) by isoproterenol leads to the activation of the cAMP/protein kinase A (PKA) signaling pathway, which, in turn, results in the phosphorylation by PKA of various protein targets, including the RyR2 channel. RyR2 is specifically phosphorylated at the residue serine-2030 (S2030) upon β-AR stimulation by isoproterenol (Xiao et al., 2005). […] To do this, freshly isolated rat cardiac myocytes are pre-treated with various concentrations of the selected compounds for 5 min, followed by stimulation of the β-AR with 100-200 nM isoproterenol in the continued presence of the selected compounds for 30 min. Whole cell lysates are then prepared and used for determining the level of phosphorylation of RyR2 at S2030 by Western blotting using a site- and phospho-specific antibody against the phosphorylated S2030 site."}, "RyR2-R4496C KI mice": {"system": "RyR2-R4496C KI mice", "assay": "Stress-induced ventricular tachycardia in RyR2-R4496C knock-in mice (CPVT model)", "assay_type": "in vivo, mouse", "conditions": "16 mg/kg/day i.p. for 5 days, preliminary", "procedure": "The electrocardiograms (ECG) of the R4496C KI mice were continuously monitored by using telemetric ECG recordings before and after the injection of epinephrine and caffeine. The incidence of ventricular tachycardia (VT) was assessed by determining the duration of VT occurring during a 2-min period (% of time).\nIn order to assess the efficacy of compounds of the present invention in suppressing cardiac arrhythmia at the animal level, genetically engineered knock-in mice were generated harboring RyR2 mutations that are associated with cardiac arrhythmia and sudden death. A heterozygous knock-in mouse line harboring the disease-causing RyR2 mutation, R4496C, has been prepared. Similar to patients who carry the mutation, the R4496C mutant mice are likely prone to stress-induced cardiac arrhythmia and sudden death. If this is the case, this R4496C mouse model may be used to test if compounds of the present invention are able to reduce the incidence of stress-induced cardiac arrhythmia and sudden death. Briefly, mutant mice will be pretreated with or without a positive compound identified above. Epinephrine and caffeine will be injected into the mutant mice to induce cardiac arrhythmia. Telemetric ECG recordings will be used to monitor the cardiac activity at rest and during epinephrine and caffeine perfusion. […]"}, "RyR2 channel [1]": {"molecular_target": "RyR2 channel (Homo sapiens, UniProt Q92736)", "sequence (Q92736 whole entry)": "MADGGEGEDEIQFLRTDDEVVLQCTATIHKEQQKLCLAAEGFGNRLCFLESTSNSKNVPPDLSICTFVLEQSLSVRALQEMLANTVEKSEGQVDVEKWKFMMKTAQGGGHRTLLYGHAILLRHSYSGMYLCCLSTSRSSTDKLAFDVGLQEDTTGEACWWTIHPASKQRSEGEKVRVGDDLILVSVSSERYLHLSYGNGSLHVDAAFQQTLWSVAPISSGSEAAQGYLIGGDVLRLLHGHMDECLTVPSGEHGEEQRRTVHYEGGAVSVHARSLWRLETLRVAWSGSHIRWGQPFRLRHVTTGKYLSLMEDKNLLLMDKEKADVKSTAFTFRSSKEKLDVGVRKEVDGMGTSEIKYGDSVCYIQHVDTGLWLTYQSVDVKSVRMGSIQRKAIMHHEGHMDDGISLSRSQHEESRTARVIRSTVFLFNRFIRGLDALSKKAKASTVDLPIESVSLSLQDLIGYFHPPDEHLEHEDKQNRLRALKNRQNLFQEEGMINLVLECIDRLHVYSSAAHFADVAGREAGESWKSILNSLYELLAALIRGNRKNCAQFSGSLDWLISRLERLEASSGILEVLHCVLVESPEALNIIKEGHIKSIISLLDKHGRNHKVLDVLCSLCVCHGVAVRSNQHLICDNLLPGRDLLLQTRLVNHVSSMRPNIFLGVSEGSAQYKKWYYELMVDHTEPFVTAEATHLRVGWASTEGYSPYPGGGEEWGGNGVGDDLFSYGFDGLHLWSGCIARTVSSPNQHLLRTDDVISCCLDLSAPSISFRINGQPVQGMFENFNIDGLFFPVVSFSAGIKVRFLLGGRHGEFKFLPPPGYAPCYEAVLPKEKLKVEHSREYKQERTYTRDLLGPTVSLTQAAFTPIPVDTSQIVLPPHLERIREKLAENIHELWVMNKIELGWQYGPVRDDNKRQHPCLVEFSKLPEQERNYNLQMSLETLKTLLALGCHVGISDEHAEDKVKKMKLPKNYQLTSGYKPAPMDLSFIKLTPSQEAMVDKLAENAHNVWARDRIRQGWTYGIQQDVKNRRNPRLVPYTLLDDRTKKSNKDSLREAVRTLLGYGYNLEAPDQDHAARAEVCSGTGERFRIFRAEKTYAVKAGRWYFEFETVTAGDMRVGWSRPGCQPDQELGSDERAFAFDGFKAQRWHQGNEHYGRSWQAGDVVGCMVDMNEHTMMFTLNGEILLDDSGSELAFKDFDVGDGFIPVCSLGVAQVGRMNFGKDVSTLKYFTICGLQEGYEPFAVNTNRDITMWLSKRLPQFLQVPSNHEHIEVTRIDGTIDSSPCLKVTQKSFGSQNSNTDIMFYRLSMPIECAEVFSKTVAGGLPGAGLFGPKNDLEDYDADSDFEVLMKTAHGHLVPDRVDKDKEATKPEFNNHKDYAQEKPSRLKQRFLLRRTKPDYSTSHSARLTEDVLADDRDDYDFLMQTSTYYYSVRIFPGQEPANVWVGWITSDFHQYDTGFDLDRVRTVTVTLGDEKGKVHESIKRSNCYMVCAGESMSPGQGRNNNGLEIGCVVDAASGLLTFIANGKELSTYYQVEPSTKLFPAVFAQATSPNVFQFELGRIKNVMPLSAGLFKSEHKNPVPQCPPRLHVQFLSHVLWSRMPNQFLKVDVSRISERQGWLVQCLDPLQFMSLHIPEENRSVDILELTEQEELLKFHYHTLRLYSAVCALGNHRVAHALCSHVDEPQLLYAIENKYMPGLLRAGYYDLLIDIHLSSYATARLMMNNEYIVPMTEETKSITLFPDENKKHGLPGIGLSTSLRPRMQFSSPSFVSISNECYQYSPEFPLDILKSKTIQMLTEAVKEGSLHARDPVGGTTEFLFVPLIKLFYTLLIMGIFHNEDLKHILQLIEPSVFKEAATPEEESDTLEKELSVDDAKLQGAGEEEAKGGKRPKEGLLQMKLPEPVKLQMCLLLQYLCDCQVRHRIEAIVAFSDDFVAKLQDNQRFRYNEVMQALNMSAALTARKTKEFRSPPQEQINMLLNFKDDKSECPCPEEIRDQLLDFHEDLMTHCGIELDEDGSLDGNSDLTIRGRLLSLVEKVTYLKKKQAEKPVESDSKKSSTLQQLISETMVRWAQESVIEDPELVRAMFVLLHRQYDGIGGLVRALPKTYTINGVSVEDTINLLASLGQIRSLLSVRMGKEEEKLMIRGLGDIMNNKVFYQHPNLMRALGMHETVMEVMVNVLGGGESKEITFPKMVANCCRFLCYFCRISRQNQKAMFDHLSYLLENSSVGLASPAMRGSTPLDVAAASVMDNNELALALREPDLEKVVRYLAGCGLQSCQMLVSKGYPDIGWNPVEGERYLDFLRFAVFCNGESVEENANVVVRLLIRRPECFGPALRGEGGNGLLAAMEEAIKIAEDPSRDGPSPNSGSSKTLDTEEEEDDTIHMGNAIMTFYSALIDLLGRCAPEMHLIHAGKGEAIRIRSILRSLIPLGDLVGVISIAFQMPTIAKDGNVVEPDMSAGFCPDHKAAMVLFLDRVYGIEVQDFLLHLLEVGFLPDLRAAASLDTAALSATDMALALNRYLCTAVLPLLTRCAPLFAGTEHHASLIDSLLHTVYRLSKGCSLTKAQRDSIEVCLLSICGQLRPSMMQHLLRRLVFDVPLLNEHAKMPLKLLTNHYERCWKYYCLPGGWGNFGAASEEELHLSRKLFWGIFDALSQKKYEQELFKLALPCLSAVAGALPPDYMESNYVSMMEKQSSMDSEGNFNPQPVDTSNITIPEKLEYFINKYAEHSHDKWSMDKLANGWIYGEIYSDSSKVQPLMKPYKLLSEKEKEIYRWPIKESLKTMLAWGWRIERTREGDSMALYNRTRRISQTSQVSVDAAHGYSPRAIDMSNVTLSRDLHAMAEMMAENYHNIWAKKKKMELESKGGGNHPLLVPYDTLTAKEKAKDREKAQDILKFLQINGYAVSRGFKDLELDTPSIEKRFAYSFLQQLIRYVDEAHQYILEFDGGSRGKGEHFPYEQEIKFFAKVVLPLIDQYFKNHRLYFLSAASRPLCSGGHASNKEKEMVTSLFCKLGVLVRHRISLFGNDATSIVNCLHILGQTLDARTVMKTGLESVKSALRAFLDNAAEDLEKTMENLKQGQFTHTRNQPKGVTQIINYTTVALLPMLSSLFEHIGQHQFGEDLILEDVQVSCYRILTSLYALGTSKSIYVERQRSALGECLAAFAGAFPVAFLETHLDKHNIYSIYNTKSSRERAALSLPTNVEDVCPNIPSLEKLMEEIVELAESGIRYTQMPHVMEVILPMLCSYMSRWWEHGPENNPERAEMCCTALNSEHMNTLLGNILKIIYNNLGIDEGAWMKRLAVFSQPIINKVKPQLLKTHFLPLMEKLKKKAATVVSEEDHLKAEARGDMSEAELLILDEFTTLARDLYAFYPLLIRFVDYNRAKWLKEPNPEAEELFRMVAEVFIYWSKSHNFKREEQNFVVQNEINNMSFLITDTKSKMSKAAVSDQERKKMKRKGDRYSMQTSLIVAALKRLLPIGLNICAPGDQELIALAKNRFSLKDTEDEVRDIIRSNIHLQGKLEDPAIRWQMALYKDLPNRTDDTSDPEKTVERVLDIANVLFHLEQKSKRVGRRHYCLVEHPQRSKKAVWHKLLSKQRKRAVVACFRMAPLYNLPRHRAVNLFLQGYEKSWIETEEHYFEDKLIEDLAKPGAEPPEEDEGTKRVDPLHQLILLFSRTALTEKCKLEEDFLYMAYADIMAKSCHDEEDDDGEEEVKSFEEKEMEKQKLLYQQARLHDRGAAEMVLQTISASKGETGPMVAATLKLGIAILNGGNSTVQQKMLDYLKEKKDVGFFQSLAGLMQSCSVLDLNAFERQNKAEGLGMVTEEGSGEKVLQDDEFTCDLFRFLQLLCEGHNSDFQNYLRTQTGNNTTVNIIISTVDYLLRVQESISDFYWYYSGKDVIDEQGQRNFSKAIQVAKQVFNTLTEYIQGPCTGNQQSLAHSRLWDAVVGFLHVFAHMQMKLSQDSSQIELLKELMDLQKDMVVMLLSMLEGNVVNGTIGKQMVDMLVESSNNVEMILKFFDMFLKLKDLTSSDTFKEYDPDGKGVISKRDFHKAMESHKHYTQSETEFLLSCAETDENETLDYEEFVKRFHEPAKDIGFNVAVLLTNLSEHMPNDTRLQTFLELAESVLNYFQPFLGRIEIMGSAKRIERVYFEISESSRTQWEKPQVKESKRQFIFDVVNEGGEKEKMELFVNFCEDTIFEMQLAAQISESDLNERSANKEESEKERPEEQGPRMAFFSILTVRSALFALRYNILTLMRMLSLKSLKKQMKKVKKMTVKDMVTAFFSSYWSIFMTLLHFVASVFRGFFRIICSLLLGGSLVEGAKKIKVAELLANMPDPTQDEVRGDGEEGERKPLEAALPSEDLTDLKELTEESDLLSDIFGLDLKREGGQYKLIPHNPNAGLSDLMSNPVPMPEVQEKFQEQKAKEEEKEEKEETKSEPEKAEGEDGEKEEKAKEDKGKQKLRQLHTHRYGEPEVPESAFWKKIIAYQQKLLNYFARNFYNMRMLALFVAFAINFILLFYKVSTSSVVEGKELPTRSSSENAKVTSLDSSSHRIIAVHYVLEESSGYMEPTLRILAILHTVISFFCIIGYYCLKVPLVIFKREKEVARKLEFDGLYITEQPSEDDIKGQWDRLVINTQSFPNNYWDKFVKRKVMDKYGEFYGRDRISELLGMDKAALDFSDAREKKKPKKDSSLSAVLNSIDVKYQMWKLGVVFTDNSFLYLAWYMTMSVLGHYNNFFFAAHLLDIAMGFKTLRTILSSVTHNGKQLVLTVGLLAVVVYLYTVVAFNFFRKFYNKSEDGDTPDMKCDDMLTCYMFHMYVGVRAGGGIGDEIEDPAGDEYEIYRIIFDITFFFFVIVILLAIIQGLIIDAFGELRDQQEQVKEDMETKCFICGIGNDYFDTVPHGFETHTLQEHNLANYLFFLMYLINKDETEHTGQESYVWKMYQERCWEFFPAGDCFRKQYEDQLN", "conditions": "Honen et al., 2003; cited from earlier work"}, "[2]": {"system": "SOICR in rat ventricular myocytes", "assay": "SOICR in rat ventricular myocytes (single cell Ca2+ imaging, fluo-4)", "assay_type": "cell-based", "conditions": "for IC50: Rattus norvegicus, Ventricular myocyte", "procedure": "Rat ventricular myocytes were loaded with a fluorescent Ca^2+ indicator, fluo 4-AM, and incubated at a high concentration of external Ca^2+ (10 mM) to induced SR Ca^2+ overload and SOICR, which manifests as Ca^2+ oscillations.\nIn the experiments shown in FIG. 3, rat ventricular myocytes were loaded with a fluorescent Ca^2+ indicator, fluo-4, and incubated at a high concentration of extracellular Ca^2+ (10 mM) to induce SR Ca^2+ overload and SOICR, which manifests as Ca^2+ waves/oscillations. These Ca^2+ oscillations were monitored by a single cell Ca^2+ imaging technique.\nFurther verification of whether these identified compounds also work in cardiac cells, the effect of these compounds on SOICR in rat ventricular myocytes may also be determined. Rat ventricular myocytes may be isolated according to the standard procedure using enzymatic digestion. Freshly isolated cells are loaded with a fluorescent Ca^2+ dye, fluo 4-AM, and bathed at high concentrations of extracellular Ca^2+ (5-10 mM) to induce SR Ca^2+ overload and SOICR. The intracellular Ca^2+ transients as a result of SOICR will be monitored by measuring the fluorescent intensity using a fluorescent microscope. Various concentrations of the selected compounds (10 nM to 100 μM) will be applied and the resulting changes in intracellular Ca^2+ transients will be determined and analyzed."}, "β-adrenergic receptors": {"molecular_target": "β-adrenergic receptors", "conditions": "Yao et al., 2003; read-out: IC50 of β-blocking activity; cited from earlier work"}, "[3]": {"conditions": "patients with heart failure; Miller, 2003; cited from earlier work"}, "RyR2": {"system": "RyR2", "assay": "Initial investigations studying RyR2: suppression of SOICR by analogues", "assay_type": "cell-based"}, "RyR2-R4496C mutant": {"molecular_target": "T2, RyR2-R4496C mutant (Mus musculus, UniProt E9Q401, R4495C)", "T2 construct": "expressed in transfected cells; host or cells: HEK293", "assay": "SOICR in HEK293 cells expressing RyR2-R4496C mutant (fura-2 single cell Ca2+ imaging)", "assay_type": "cell-based", "conditions": "up to 500 μM", "from_the_text": "as §1\nThis bioassay takes advantage of the finding that HEK293 cells expressing RyR2 mutants associated with cardiac arrhythmia and sudden death, readily display SOICR at elevated extracellular Ca^2+. […] This assay may be employed to determine the dose-dependent effect of each proposed compound on SOICR.\nas §2"}, "mutant RyR2 channels": {"molecular_target": "T3, mutant RyR2 channels (Mus musculus, UniProt E9Q401, R4495C)", "T3 construct": "expressed in transfected cells; host or cells: HEK293 (cell lysate, detergent-solubilised)", "assay": "[3H]ryanodine binding, basal channel activity of RyR2", "assay_type": "biochemical", "from_the_text": "as §1\n[^3H]Ryanodine binding has been widely used as a functional assay for assessing the activity of the RyR2 channel. […] These [^3H]ryanodine binding studies reveal whether suppression of SOICR by a compound is mediated by inhibition of the RyR2 channel activity."}, "RyR2 channel [4]": {"molecular_target": "T4, RyR2 channel (Mus musculus, UniProt E9Q401, R4495C)", "T4 construct": "expressed in transfected cells; host or cells: HEK293 (cell lysate, detergent-solubilised)", "assay": "Ca2+ dependence of [3H]ryanodine binding (sensitivity of RyR2 to Ca2+ activation, CICR)", "assay_type": "biochemical", "conditions": "300 μM (FIG. 4D)", "from_the_text": "as §1\nAlternatively, the effect of compounds on CICR may be determined using [^3H]ryanodine binding. As CICR is dependent, to a large extent, on the sensitivity of the RyR2 channel to activation by Ca^2+, the effect of a compound on CICR may be determined by assessing the impact of the compound on the sensitivity of the RyR2 channel to Ca^2+ activation. To this end, [^3H]ryanodine binding to the RyR2 channel in a wide range of Ca^2+ concentrations may be measured. The sensitivity (EC50) of [^3H]ryanodine binding to RyR2 in the absence and presence of a particular compound may be determined."}},
  "note": "Entries after “also recorded” stand apart in the source; their conditions may differ. Read-outs that look alike come from different tables or passages of the source.",
  "data": [
    {"smiles": "COc1ccccc1OCCN1CC(COc2cccc3[nH]c4ccccc4c23)OCC1=O", "note": "(stereo not shown) [Compound 2a]", "values": [
      {"measurement": "effect on SOICR", "setting": "RyR2-N4104K mutant; HEK293 RyR2-N4104K, 2 mM [Ca2+]o, various concentrations", "value": "abolish SOICR"},
      {"measurement": "concentration at which SOICR is suppressed", "setting": "RyR2-N4104K mutant; HEK293 cells (FIG. 5)", "value": "~30", "unit": "µM"},
      {"measurement": "β-blocking activity (block of isoproterenol-induced RyR2 S2030 phosphorylation)", "setting": "β-adrenergic receptor; 1-1000 nM, preliminary, listed as VK-II-36", "value": "little β-blocking activity; also recorded: does not block the β-adrenergic receptor"},
      {"measurement": "ventricular tachycardia after epinephrine (2 mg/kg) and caffeine (120 mg/kg)", "setting": "RyR2-R4496C KI mice; listed as VK-II-36", "value": "abolish epinephrine and caffeine-induced ventricular tachycardia; also recorded: no VT was observed"}
    ]},
    {"smiles": "CC/C=C\\C/C=C\\C/C=C\\C/C=C\\C/C=C\\C/C=C\\CCC(=O)O", "note": "[DHA, docosahexenoic acid]", "values": [
      {"measurement": "effect on RyR2 channel activity", "setting": "RyR2 channel [1]", "value": "inhibit RyR2 channel activity"}
    ]},
    {"smiles": "COc1ccccc1OCCNCC(O)COc1cccc2[nH]c3ccccc3c12", "note": "(stereo not shown) [Carvedilol]", "values": [
      {"measurement": "IC50", "setting": "[2]; read-out: IC50 for suppressing SOICR", "value": "~10", "unit": "µM"},
      {"measurement": "IC50", "setting": "[2]; read-out: IC50 for suppressing the frequency of SOICR", "value": "~10", "unit": "µM"},
      {"measurement": "concentration that abolishes SOICR", "setting": "[2]; rat ventricular myocytes, 10 mM extracellular Ca2+", "value": 50, "unit": "µM"},
      {"measurement": "concentration that completely blocks the β-adrenergic receptor", "setting": "β-adrenergic receptor", "value": 100, "unit": "nM"},
      {"measurement": "ventricular tachycardia after epinephrine (2 mg/kg) and caffeine (120 mg/kg)", "setting": "RyR2-R4496C KI mice", "value": "abolish epinephrine and caffeine-induced ventricular tachycardia; also recorded: no VT was observed"},
      {"measurement": "IC50", "setting": "β-adrenergic receptors", "value": "0.001 to 0.002", "unit": "µM"},
      {"measurement": "absolute reduction in mortality", "setting": "[3]", "value": "~7", "unit": "%"}
    ]},
    {"smiles": "COc1ccccc1OCCN1CCOC(COc2cccc3[nH]c4ccccc4c23)C1", "note": "(stereo not shown) [Compound 3a]", "values": [
      {"measurement": "suppression of SOICR", "setting": "RyR2", "value": "limited effect"}
    ]},
    {"smiles": "COc1ccccc1OCCN1CC(COc2cccc3[nH]c4ccccc4c23)OC1=O", "note": "(stereo not shown) [Compound 4a]", "values": [
      {"measurement": "suppression of SOICR", "setting": "RyR2", "value": "limited effect"}
    ]},
    {"smiles": "CC(C)NCC(O)c1ccc(NS(C)(=O)=O)cc1", "note": "(stereo not shown) [Sotalol, sotalol]", "values": [
      {"measurement": "effect on SOICR", "setting": "[2]; rat ventricular myocytes, up to 300 μM", "value": "no effect; also recorded: does not suppress SOICR at all"},
      {"measurement": "effect on SOICR", "setting": "RyR2-R4496C mutant", "value": "no significant effect; also recorded: not sotalol inhibited SOICR"},
      {"measurement": "effect on basal channel activity ([3H]ryanodine binding)", "setting": "mutant RyR2 channels; cell lysates, 3 nM Ca2+, various concentrations of drugs (FIG. 4C)", "value": "not sotalol, inhibited basal channel activity"},
      {"measurement": "effect on channel activity of RyR2", "setting": "mutant RyR2 channels; summary statement", "value": "absolutely no effect on RyR2"},
      {"measurement": "effect on Ca2+ dependence of [3H]ryanodine binding / sensitivity of RyR2 to Ca2+ activation", "setting": "RyR2 channel [4]", "value": "no significant effect"}
    ]},
    {"smiles": "OC(CNCCOc1cc(Cl)c(Cl)cc1Cl)COc1cccc2[nH]c3ccccc3c12", "note": "(stereo not shown) [Compound 1c]", "values": [
      {"measurement": "suppression of SOICR", "setting": "RyR2", "value": "inactive"}
    ]},
    {"smiles": "COc1cc(Cl)c(Cl)cc1OCCNCC(O)COc1cccc2[nH]c3ccccc3c12", "note": "(stereo not shown) [Compound 1b]", "values": [
      {"measurement": "concentration that completely blocks the β-adrenergic receptor", "setting": "β-adrenergic receptor", "value": 100, "unit": "nM"},
      {"measurement": "suppression of SOICR", "setting": "RyR2", "value": "activity comparable to that of carvedilol (1a)"}
    ]},
    {"smiles": "OC(CNCCOC1CCCCC1)COc1cccc2[nH]c3ccccc3c12", "note": "(stereo not shown) [Compound 1d]", "values": [
      {"measurement": "suppression of SOICR", "setting": "RyR2", "value": "inactive; also recorded: limited effect"}
    ]},
    {"smiles": "c1ccc2c(c1)[nH]c1cccc(OCC3CN(CCOC4CCCCC4)CCO3)c12", "note": "(stereo not shown) [Compound 3d]", "values": [
      {"measurement": "suppression of SOICR", "setting": "RyR2", "value": "limited effect"}
    ]},
    {"smiles": "CC/C=C\\C/C=C\\C/C=C\\C/C=C\\C/C=C\\CCCC(=O)O", "note": "[EPA, eicosapentenoic acid]", "values": [
      {"measurement": "effect on RyR2 channel activity", "setting": "RyR2 channel [1]", "value": "inhibit RyR2 channel activity"}
    ]}
  ]
}
